The results in this text go back to patent US8987287B2, “Spirocyclic morphinans and their use” (Purdue Pharma L.P., priority 2012, dated 2015).

By Ki is commonly meant the dissociation constant of the complex between target and ligand, obtained from inhibition or displacement. The term EC50 denotes the concentration giving half of the maximal effect. What is called Emax is the size of the effect at its maximum, as opposed to the concentration needed.

Experiment [1] concerns the target T1, μ-opioid receptor (Homo sapiens (Human), UniProt P35372). Briefly: μ-opioid receptor radioligand ([3H]-diprenorphine) dose-displacement binding assay. The conditions noted are these: binding affinity, read-out: Opioid Receptor Ki (nM) μ. Here is the method: μ-Opioid Receptor Binding Assay Procedures: Radioligand dose-displacement binding assays for μ-opioid receptors used 0.3 nM [^3H]-diprenorphine (Perkin Elmer, Shelton, Conn.), with […] membrane protein/well in a final volume of 500 μl binding buffer (10 mM MgCl2, 1 mM EDTA, 5% DMSO, 50 mM HEPES, pH 7.4). Reactions were carried out in the absence or presence of increasing concentrations of unlabeled naloxone. All reactions were conducted in 96-deep well polypropylene plates for 2 hours at room temperature. Binding reactions were terminated by rapid filtration onto 96-well Unifilter GF/C filter plates (Perkin Elmer, Shelton, Conn.), presoaked in 0.5% polyethylenimine using a 96-well tissue harvester (Perkin Elmer, Shelton, Conn.) followed by performing three filtration washes with 500 μl of ice-cold binding buffer. Filter plates were subsequently dried at 50° C. for 2-3 hours. BetaScint scintillation cocktail (Perkin Elmer, Shelton, Conn.) was added (50 μl/well), and plates were counted using a Packard Top-Count for 1 min/well. The data were analyzed using the one-site competition curve fitting functions in GraphPad PRISM™ v. 3.0 or higher (San Diego, Calif.), or an in-house function for one-site competition curve-fitting.
(§1) In TABLE 1, binding affinity of certain Compounds of the Invention to the μ-, δ- and κ-opioid receptors was determined as described above.

Experiment [2] concerns the target T2, κ opioid receptor (Homo sapiens (Human), UniProt P41145). Briefly: κ-opioid receptor [35S]GTPγS functional assay, U-2 OS cells. It counts as biochemical. Background: Binding of GTPγS marks nucleotide exchange on a G protein.
The target of experiment [3] is T2, κ opioid receptor. The experiment can be described thus: κ-opioid receptor radioligand ([3H]-U69,593) dose-displacement binding assay. The settings on record: binding affinity, read-out: Opioid Receptor Ki (nM) κ. Here is the method: κ-Opioid Receptor Binding Assay Procedures: Membranes from recombinantHEK-293 cells, CHO or U-2 OS cells expressing the recombinant human κ opioid receptor (κ) were prepared by lysing cells in ice cold hypotonic buffer (2.5 mM MgCl2, 50 mM HEPES, pH 7.4) (10 mL/10 cm dish) followed by homogenization with a tissue grinder/Teflon pestle. Membranes were collected by centrifugation at 30,000×g for 15 min at 4° C. and pellets were resuspended in hypotonic buffer to a final concentration of 1-3 mg/mL. Protein concentrations were determined using the BioRad protein assay reagent with bovine serum albumen as standard. Aliquots of κ receptor membranes were stored at −80° C.
Radioligand dose displacement assays used 0.4 nM [^3H]-U69,593 (GE Healthcare, Piscataway, N.J.; 40 Ci/mmole) with 15 μg membrane protein (recombinant κ opioid receptor expressed in HEK 293 cells; in-house prep) in a final volume of 200 μl binding buffer (5% DMSO, 50 mM Trizma base, pH 7.4). Non-specific binding was determined in the presence of 10 μM unlabeled naloxone or U69,593. All reactions were performed in 96-well polypropylene plates for 1 hour at a temperature of about 25° C. Binding reactions were terminated by rapid filtration onto 96-well Unifilter GF/C filter plates (Perkin Elmer, Shelton, Conn.) presoaked in 0.5% polyethylenimine (Sigma). Harvesting was performed using a 96-well tissue harvester (Perkin Elmer, Shelton, Conn.) followed by five filtration washes with 200 μl ice-cold binding buffer. Filter plates were subsequently dried at 50° C. for 1-2 hours. Fifty μl/well scintillation cocktail (Perkin Elmer, Shelton, Conn.) was added and plates were counted in a Packard Top-Count for 1 min/well.
as §1

The target of experiment [4] is T2, κ opioid receptor. Briefly: κ-opioid receptor [35S]GTPγS functional assay, HEK-293 or CHO cells. Type of experiment: biochemical. Here is the method:
κ-Opioid Receptor Functional Assay Procedures: Functional [^35S]GTPγS binding assays were conducted as follows. κ opioid receptor membrane solution was prepared by sequentially adding final concentrations of 0.026 μg/μl κ membrane protein (in-house), 10 μg/mL saponin, 3 μM GDP and 0.20 nM [^35S]GTPγS to binding buffer (100 mM NaCl, 10 mM MgCl2, 20 mM HEPES, pH 7.4) on ice. The prepared membrane solution (190 μl/well) was transferred to 96-shallow well polypropylene plates containing 10 μl of 20× concentrated stock solutions of agonist prepared in DMSO. Plates were incubated for 30 min at a temperature of about 25° C. with shaking. Reactions were terminated by rapid filtration onto 96-well Unifilter GF/B filter plates (Perkin Elmer, Shelton, Conn.) using a 96-well tissue harvester (Packard) and followed by three filtration washes with 200 μl ice-cold binding buffer (10 mM NaH2PO4, 10 mM Na2HPO4, pH 7.4). Filter plates were subsequently dried at 50° C. for 2-3 hours. Fifty μl/well scintillation cocktail (Perkin Elmer, Shelton, Conn.) was added and plates were counted in a Packard Top-Count for 1 min/well.
κ-Opioid Receptor Functional Data: κ GTP EC50 is the concentration of a compound providing 50% of the maximal response for the compound at a κ receptor.
κ GTP Emax (%) is the maximal effect elicited by a compound relative to the effect elicited by U69,593.
(§2) In TABLE 2, activity response of certain Compounds of the Invention to the μ-, δ- and κ-opioid receptors was determined as described above for functional assays using HEK-293 or CHO cells.

For experiment [5], the target named is T1, μ-opioid receptor. Briefly: μ-opioid receptor [35S]GTPγS functional assay, U-2 OS cells. Type of experiment: biochemical.
The target of experiment [6] is T1, μ-opioid receptor. Briefly: μ-opioid receptor [35S]GTPγS functional assay, HEK-293 or CHO cells. Type of experiment: biochemical. Here is the method: μ-Opioid Receptor Functional Assay Procedures: [^35S]GTPγS functional assays were conducted using freshly thawed μ-receptor membranes prepared in-house from a cell line expressing recombinant μ opioid receptor in a HEK-293, CHO or U-2 OS cell background, or purchased from a commercial source (Perkin Elmer, Shelton, Conn.; or DiscovRx, Fremont, Calif.). Assay reactions were prepared by sequentially adding the following reagents to binding buffer (100 mM NaCl, 10 mM MgCl2, 20 mM HEPES, pH 7.4) on ice (final concentrations indicated): membrane protein (0.026 mg/mL), saponin ([…]), GDP ([…]) and [^35S]GTPγS (0.20 nM; Perkin Elmer, Shelton, Conn.). The prepared membrane solution (190 μl/well) was transferred to 96-shallow well polypropylene plates containing 10 μl of 20× concentrated stock solutions of the agonist [D-Ala^2, N-methyl-Phe^4 Gly-ol^5]-enkephalin (DAMGO) prepared in dimethyl sulfoxide (DMSO). Plates were incubated for 30 min at about 25° C. with shaking. Reactions were terminated by rapid filtration onto 96-well Unifilter GF/B filter plates (Perkin Elmer, Shelton, Conn.) using a 96-well tissue harvester (Perkin Elmer, Shelton, Conn.) followed by three filtration washes with 200 μl of ice-cold wash buffer (10 mM NaH2PO4, 10 mM Na2HPO4, pH 7.4). Filter plates were subsequently dried at 50° C. for 2-3 hours. BetaScint scintillation cocktail (Perkin Elmer, Shelton, Conn.) was added (50 μl/well) and plates were counted using a Packard Top-Count for 1 min/well. Data were analyzed using the sigmoidal dose-response curve fitting functions in GraphPad PRISM v. 3.0, or an in-house function for non-linear, sigmoidal dose-response curve-fitting.
μ-Opioid Receptor Functional Data: μ GTP EC50 is the concentration of a compound providing 50% of the maximal response for the compound at a μ-opioid receptor.
μ GTP Emax (%) is the maximal effect elicited by a compound relative to the effect elicited by DAMGO, a standard μ agonist. Generally, the μ GTP Emax (%) value measures the efficacy of a compound to treat or prevent pain or other Conditions.
as §2

Take `CN1C(=O)NC(=O)[C@@]12CC[C@@]1(O)[C@H]3Cc4ccc(O)cc4[C@@]1(CCN3CC1CC1)C2` [Compound 63, (4S,4b′R,8a′S,9′R)-11′-(cyclopropylmethyl)-3′,8a′-dihydroxy-3-methyl-8′,8a′,9′,10′-tetrahydro-5′H,7′H-spiro[imidazolidine-4,6′-[9,4b](epiminoethano)phenantrene]-2,5-dione]: the figures for the Ki on μ-opioid receptor [1] and at κ opioid receptor [3] were 0.86 ± 0.11 nM and 0.3 ± 0.041 nM, respectively. The EC50 at κ opioid receptor [2] is 0.69 ± 0.025 nM; on κ opioid receptor [4] it was 3.53 ± 0.43 nM; at μ-opioid receptor [5], 0.97 ± 0.053 nM; on μ-opioid receptor [6], more than 20000 nM. Also, the Emax on κ opioid receptor [2] (relative to U69,593, U-2 OS cells) stood at 108%; on κ opioid receptor [4] (relative to U69,593, HEK-293 or CHO cells) it was 74.7 ± 1.45%; at μ-opioid receptor [5] (relative to DAMGO, U-2 OS cells), 14.3 ± 0.67%; at μ-opioid receptor [6] (relative to DAMGO, HEK-293 or CHO cells) it was 1%.
